IC50 data for 64 compounds are collected here from patent US11433053B2, “LSD1 inhibitor and preparation method and application thereof” (CSPC ZHONGQI PHARMACEUTICAL TECHNOLOGY (SHIJIAZHUANG) CO., …, priority 2017, dated 2022).

As a reminder, the IC50 is the point on the concentration scale where inhibition reaches its midpoint.

This experiment concerns the target human LSD1 (Homo sapiens (Human), UniProt O60341). Briefly: Evaluation of enzyme activity: LSD1 fluorescence coupling enzyme assay (HRP/Amplex Red). In kind it is biochemical. The settings on record: human LSD1, histone H3(1-21)K4me2 peptide 10 μM, 30 min pre-incubation. As to the method:
The purpose of this test is to test the in vitro inhibitory activities of the compounds against LSD1. The enzyme used in this experiment was human LSD1, and the standard substrate was histone H3(1-21)K4me2 peptide (10 μM). HCI-2509 (SP2509) was used as reference compound, and the fluorescence coupling enzyme assay was employed. The production of FAD-dependent H2O2 as a result of demethylase activity of LSD1 was measured by coupling with HRP and Amplex Red. Compounds as well as control compound HCl-2509 were tested in 10-dose IC50 mode with a 3-fold serial dilution in duplicate starting at 10 μm. All compounds were pre-incubated 30 mins with enzyme before added substrate to start reaction. Fluorescence measurement: Ex/Em=535/590 by EnVision.
The test compound's inhibitory activities against LSD11 was classified as: + for IC50≤50 nM; ++ for IC50>50 nM and ≤100 nM; +++ for IC50>100 nM and ≤500 nM, and the results are shown in Table 1.

`O=C(O)c1ccc2c(c1)CN(CC1(CN[C@H]3C[C@@H]3c3ccccc3)CC1)C2` [Example 99] yielded an IC50 of 100 to 500 nM.

As to `O=C(O)c1ccc(-c2nc(C3(CN[C@H]4CC4c4ccccc4)CC3)no2)cn1` (stereo partly shown) [Example 102], the IC50 lay in the range of 100 to 500 nM.

`O=C(O)c1ccc(N2CCC(c3nc(C4(CN[C@H]5C[C@@H]5c5ccccc5)CC4)no3)CC2)cc1` [Example 103] showed an IC50 of 100 to 500 nM.

Turning to `O=C(O)c1ccc(N2CCC(c3nc(C4(CN[C@H]5CC5c5ccccc5)CC4)no3)CC2)cn1` (stereo partly shown) [Example 104], the IC50 was not above 50 nM.

With `CC(=O)N1CCC(c2nc(C3(CN[C@H]4C[C@@H]4c4ccccc4)CC3)no2)CC1` [Example 105], the IC50 lay in the range of 50 to 100 nM.

`CS(=O)(=O)n1cc2c(n1)CN(CC1(CN[C@H]3C[C@@H]3c3ccccc3)CC1)C2` [Example 106] had a half-inhibitory concentration (IC50) of 100 to 500 nM.

With `O=C(O)c1ccc(C(=O)N2CCC(c3nc(C4(CN[C@H]5C[C@@H]5c5ccccc5)CC4)no3)CC2)cc1` [Example 107], the IC50 was in the range of 100 to 500 nM.

For the compound `CN(C)[C@H]1CC[C@H](c2nc(C3(CN[C@H]4C[C@@H]4c4ccccc4)CC3)no2)CC1` [Example 108], the IC50 lay in the range of 100 to 500 nM.

As to `Cn1cc2c(n1)CN(CC1(CN[C@H]3CC3c3ccccc3)CC1)C2` (stereo partly shown) [Example 109], the IC50 was not above 50 nM.

Regarding `Cn1ncc2c1CN(CC1(CN[C@H]3CC3c3ccccc3)CC1)C2` (stereo partly shown) [Example 110], the IC50 was not above 50 nM.

As to `O=C(O)[C@H](Cc1ccccc1)NCC1(CN[C@@H]2C[C@H]2c2ccccc2)CC1` [Example 112], the IC50 was in the range of 100 to 500 nM.

As to `CN(C)[C@H]1CC[C@H](c2nc(C3(CN[C@@H]4C[C@H]4c4ccccc4)CC3)no2)CC1` [Example 115], the IC50 is 100 to 500 nM.

Regarding `c1ccc(C2C[C@@H]2NCC2(c3cccnc3)CCC2)cc1` (stereo partly shown) [Example 119], the IC50 is not above 50 nM.

Compound `c1ccc(C2C[C@@H]2NCC2(c3ccccc3)CCCC2)cc1` (stereo partly shown) [Example 121] returned an IC50 not above 50 nM.

`c1ccc(C2C[C@@H]2NCC2(c3ccccc3)CCC2)cc1` (stereo partly shown) [Example 122]: the IC50 was not above 50 nM.

As to `Clc1ccc(C2(CN[C@H]3CC3c3ccccc3)CCC2)cc1` (stereo partly shown) [Example 123], the IC50 was not above 50 nM.

`c1ccc(C2C[C@@H]2NCC2(c3noc(-c4ccccn4)n3)CCC2)cc1` (stereo partly shown) [Example 125] registered an IC50 not above 50 nM.

`FC(F)(F)c1ccnc(-c2nc(C3(CN[C@H]4CC4c4ccccc4)CCC3)no2)c1` (stereo partly shown) [Example 126] came in with a 50% inhibitory concentration (IC50) not above 50 nM.

In turn, `c1ccc([C@H]2C[C@@H]2NCC2(c3noc(-c4cncnc4)n3)CCC2)cc1` [Example 128] had an IC50 of 50 to 100 nM.

Take `c1ccc(C2C[C@@H]2NCC2(c3noc(-c4cccnc4)n3)CCC2)cc1` (stereo partly shown) [Example 130]: the IC50 was not above 50 nM.

`FC(F)(F)c1cc(-c2nc(C3(CN[C@H]4CC4c4ccccc4)CCC3)no2)ccn1` (stereo partly shown) [Example 131] returned an IC50 not above 50 nM.

On to `O=C(O)c1ccccc1-c1nc(C2(CN[C@H]3C[C@@H]3c3ccccc3)CCC2)no1` [Example 134], for which the IC50 is 100 to 500 nM.

Consider `O=C(O)c1cccc(-c2nc(C3(CN[C@H]4CC4c4ccccc4)CCC3)no2)c1` (stereo partly shown) [Example 135], for which the IC50 is 100 to 500 nM.

As to `c1ccc(C2C[C@@H]2NCC2(c3noc(-c4ccc(-n5cnnc5)cc4)n3)CCC2)cc1` (stereo partly shown) [Example 136], the IC50 is not above 50 nM.

For the compound `c1ccc([C@H]2C[C@@H]2NCC2(c3cc([C@H]4CCCNC4)on3)CCC2)cc1` [Example 138], the IC50 was in the range of 50 to 100 nM.

In turn, `c1ccc([C@H]2C[C@@H]2NCC2(c3noc([C@@H]4CCCNC4)n3)CC2)cc1` [Example 139] came in with an IC50 of 50 to 100 nM.

In turn, `N[C@H]1CCC[C@@H](c2nc(C3(CN[C@@H]4C[C@H]4c4ccccc4)CC3)no2)C1` [Example 148] showed an IC50 not above 50 nM.

For `O=C(O)[C@H]1C[C@@H](c2nc(C3(CN[C@@H]4C[C@H]4c4ccccc4)CC3)no2)C1` [Example 150], the IC50 is not above 50 nM.

Compound `N[C@@H](Cc1nc(C2(CN[C@@H]3C[C@H]3c3ccccc3)CC2)no1)C(=O)O` [Example 152] had an IC50 of 100 to 500 nM.

Compound `CC(C)[C@H](N)c1nc(C2(CN[C@@H]3C[C@H]3c3ccccc3)CC2)no1` [Example 154] came in with an IC50 of 100 to 500 nM.

`NC1CCN(C(=O)c2nc(C3(CN[C@@H]4C[C@H]4c4ccccc4)CC3)no2)CC1` [Example 160] displayed an IC50 not above 50 nM.

On to `O=C(O)c1ccc(CN2CCC(Cc3nc(C4(CN[C@H]5CC5c5ccccc5)CC4)no3)CC2)cc1` (stereo partly shown) [Example 164], for which the IC50 was not above 50 nM.

On to `O=C(O)c1ccc(CN2CCC(c3nc(C4(CN[C@@H]5C[C@H]5c5ccccc5)CC4)no3)CC2)cc1` [Example 169], for which the concentration for half-maximal inhibition (IC50) lay in the range of 50 to 100 nM.

Compound `O=C(O)c1ccc(CN2CCC(c3nc(C4(CN[C@H]5C[C@@H]5c5ccccc5)CC4)no3)CC2)cc1` [Example 170] registered an IC50 of 100 to 500 nM.

In turn, `COC(=O)[C@H]1CC[C@H](c2nc(C3(CN[C@H]4C[C@@H]4c4ccccc4)CC3)no2)CC1` [Example 172] had an IC50 not above 50 nM.

Compound `O=C(O)C1CC2(C1)CC(c1nc(C3(CN[C@H]4CC4c4ccccc4)CC3)no1)C2` (stereo partly shown) [Example 173] registered an IC50 of 100 to 500 nM.

`O=C(O)[C@H]1CC[C@@H](c2nc(C3(CN[C@H]4C[C@@H]4c4ccccc4)CC3)no2)CC1` [Example 175] displayed an IC50 of 100 to 500 nM.

`O=C(O)C12CCC(c3nc(C4(CN[C@H]5C[C@@H]5c5ccccc5)CC4)no3)(CC1)CC2` [Example 177] registered an IC50 of 100 to 500 nM.

Consider `O=C(O)c1ccc(-c2nc(C3(CN[C@H]4CC4c4ccccc4)CC3)no2)cc1` (stereo partly shown) [Example 181], for which the IC50 was not above 50 nM.

In turn, `Fc1ccccc1-c1nc(C2(CN[C@H]3CC3c3ccccc3)CC2)no1` (stereo partly shown) [Example 185] registered an IC50 not above 50 nM.

For the compound `Cc1oc(C2(CN[C@H]3C[C@@H]3c3ccccc3)CCC2)nc1C(=O)O` [Example 186], the half-maximal inhibitory concentration (IC50) lay in the range of 100 to 500 nM.

`Fc1ccc(-c2nc(C3(CN[C@H]4CC4c4ccccc4)CCC3)no2)c(F)c1` (stereo partly shown) [Example 187] yielded an IC50 not above 50 nM.

`O=C(O)c1ccc(-c2nc(C3(CN[C@H]4CC4c4ccccc4)CCC3)no2)cc1` (stereo partly shown) [Example 188] registered an IC50 not above 50 nM.

In turn, `CC(C)Oc1ccc(-c2nc(C3(CN[C@H]4CC4c4ccccc4)CCC3)no2)cc1C#N` (stereo partly shown) [Example 189] yielded an IC50 not above 50 nM.

The compound `N#Cc1cc(F)cc(-c2nc(C3(CN[C@H]4CC4c4ccccc4)CCC3)no2)c1` (stereo partly shown) [Example 190] gave an IC50 not above 50 nM.

`Fc1cc(F)c(-c2nc(C3(CN[C@H]4CC4c4ccccc4)CCC3)no2)c(F)c1` (stereo partly shown) [Example 191] came in with an IC50 not above 50 nM.

Take `Cc1sc(C2(CN[C@H]3CC3c3ccccc3)CCC2)nc1C(=O)O` (stereo partly shown) [Example 194]: the IC50 was in the range of 100 to 500 nM.

`O=C(O)c1ccc(CNC2(CN[C@H]3C[C@@H]3c3ccccc3)CC2)cc1` [Example 200]: the IC50 lay in the range of 100 to 500 nM.

On to `CC1(C)CCN(CC2(CN[C@H]3C[C@@H]3c3ccccc3)CC2)C1` [Example 202], for which the IC50 was 50 to 100 nM.

As to `O=C(O)c1ccc(CN2CC(c3nc(C4(CN[C@H]5C[C@@H]5c5ccccc5)CC4)no3)C2)cc1` [Example 205], the IC50 fell in the range of 100 to 500 nM.

`N[C@H]1CC[C@@H](c2nc(C3(CN[C@@H]4C[C@H]4c4ccccc4)CCC3)no2)CC1` [Example 209] returned an IC50 not above 50 nM.

On to `c1ccc([C@H]2C[C@@H]2NCC2(CN3CCC3)CC2)cc1` [Example 211], for which the IC50 lay within 50 to 100 nM.

`C[C@H]1CCCN1CC1(CN[C@H]2C[C@@H]2c2ccccc2)CC1` [Example 212] yielded an IC50 of 100 to 500 nM.

As for `O=C(O)c1ccc(CN2CCC(c3nc(C4(CN[C@H]5C[C@@H]5c5ccccc5)CC4)no3)C2)cc1` (stereo partly shown) [Example 215], the IC50 is 100 to 500 nM.

The compound `CN1CCC(c2nc(C3(CN[C@H]4C[C@@H]4c4ccccc4)CC3)no2)CC1=O` (stereo partly shown) [Example 218] yielded an IC50 of 100 to 500 nM.

In turn, `C[C@@H]1CN(CC2(CN[C@H]3CC3c3ccccc3)CC2)[C@@H](C)CN1C` (stereo partly shown) [Example 221] had an IC50 of 100 to 500 nM.

Take `O=C(O)[C@@H]1CCN1CC1(CN[C@@H]2C[C@H]2c2ccccc2)CC1` [Example 228]: the IC50 lay within 100 to 500 nM.

`c1ccc([C@@H]2C[C@H]2NCC2(c3noc(C4CCNCC4)n3)CC2)cc1` [Example 231] had an IC50 of 50 to 100 nM.

In the case of `NC[C@H]1CC[C@H](c2nc(C3(CN[C@@H]4C[C@H]4c4ccccc4)CC3)no2)CC1` [Example 239], the IC50 is not above 50 nM.

`N[C@H]1CC[C@H](Cc2nc(C3(CN[C@@H]4C[C@H]4c4ccccc4)CC3)no2)CC1` [Example 240] returned an IC50 of 50 to 100 nM.

`N[C@H]1CC[C@H](c2nnc(C3(CN[C@@H]4C[C@H]4c4ccccc4)CC3)o2)CC1` [Example 243] displayed an IC50 of 100 to 500 nM.

Compound `CC1(N)CCC(c2nc(C3(CN[C@@H]4C[C@H]4c4ccccc4)CC3)no2)CC1` (stereo partly shown) [Example 245] gave an IC50 not above 50 nM.

For the compound `O=C(O)C1CCN(c2nc(C3(CN[C@@H]4C[C@H]4c4ccccc4)CC3)no2)CC1` [Example 253], the concentration for half-maximal inhibition (IC50) lay within 100 to 500 nM.

The compound `C/C(=N\NC(=O)c1cccc(S(=O)(=O)N2CCOCC2)c1)c1cc(Cl)ccc1O` [HCI-2509, reference compound] returned an IC50 not above 50 nM.
